Reference: PubChem BioAssay AID1963831 (Molecular Pharmacology Branch, DTP, NCI, 2024)
pIC50: −log10 of the molar value.

Tested on: 889142-216-R-J1-PDC complex spheroid viability
Test: Anticancer human tumor 889142-216-R-J1-PDC patient-derived bladder carcinoma cell line growth inhibition [POLQ]
Conditions: for pIC50: curve of first compound; for viability, T/C: stronger effect = lower value
Protocol: Multicellular complex tumor spheroid response to Polymerase (POL) inhibitors (novobiocin, ART-558, RP6685) in combination with a variety of drugs and investigational agents in selected tumor cell lines
The POL inhibitors (novobiocin, ART-558, and RP6685) were evaluated both individually and in combination with standard of care and investigational anticancer small molecules within a complex spheroid model of solid tumors. . Complex spheroids include a stromal component modeled by human endothelial cells (HUVEC) and fibroblasts modeled by human mesenchymal stem cells (MSCs). The concentration ranges selected for each drug and investigational agent were based upon clinically achievable concentrations if the clinical Cmax of the agent was known.
Compounds. The drugs and investigational agents: novobiocin (NSC847541), ART-558 (NSC835418), RP-6685 (NSC848927), peposertib (NSC802822), ceralasertib (NSC780249), elimusertib (NSC800525), camonsertib (NSC841442), AZD-1390 (NSC803789), olaparib (NSC753686), talazoparib (NSC767125), rucaparib (NSC756644), sotorasib (NSC818433), MRTX-1133 (NSC836407), SN-38 (NSC673596), topotecan (NSC609699), epotoside (NSC141540), doxorubicin (NSC123127), gemcitabine (NSC613327), 5-fluorouracil (NSC19893), paclitaxel (NSC125973), vemurafenib (NSC761431), MSA-2 (NSC828583), SN-011 (NSC837082), adavosertib (NSC754352), prexasertib (NSC758257), carboplatin (NSC241240) and oxaliplatin (NSC266046), were obtained from the National Cancer Institute (NCI) Developmental Therapeutics Program Chemical Repository (21). The FDA-approved anticancer drug set is available from the Developmental Therapeutics Program at https://dtp.cancer.gov/organization/dscb/obtaining/. […] The stock solutions were prepared in dimethyl sulfoxide (DMSO, Sigma-Aldrich, St. Louis, MO, cat. D2650), except for the platinum compounds which were prepared in saline (Quality Biological, Gaithersburg, MD, cat. 114-055-101), at 800-fold the tested concentration and stored at -70 degrees C prior to their use. All drugs and investigational agents were tested over a range starting from a high concentration at or near the clinical Cmax and decreasing in half-log increments. If the clinical Cmax for an agent had not been determined, the highest concentration tested was 10 microM, except for SN-38, which was tested at a high concentration of 1 microM.
Cell Culture. All cells were maintained in an incubator at 37 degrees C and 5% CO2 with 95% humidity. The PDC lines were cultured according to standard operating procedures established by the NCI PDMR (https://pdmr.cancer.gov). Table 3 of the manuscript, lists the cell lines along with the number of the three cell types plated to form the mct-spheroids and media for tumor cell growth. After thawing, all PDC lines, except 997537-175-T-J1-PDC and 415267-285-R-J2-PDC, were cultured in Matrigel-coated flasks prepared with a working solution of 1X Ham's F-12 nutrient mix, without supplementation (Thermo Fisher Scientific, cat. 11765054), 100 U/mL penicillin-streptomycin (Thermo Fisher Scientific, cat. 15140122), and 2.5% Matrigel (Corning Inc., Corning, NY, cat. 354248) for the first three passages. The two PDC lines 997537-175-T-J1-PDC and 415267-285-R-J2-PDC were cultured on uncoated flasks. The 857933-349-R-J2-PDC line was cultured in 6C/Colon 1B media containing advanced DMEM/F-12 (Thermo Fisher Scientific, cat. 12634028), 10 mM HEPES (Thermo Fisher Scientific, cat. 15630080), 1X GlutaMAX supplement (Thermo Fisher Scientific, cat. 35050061), 0.1 mg/mL primocin (InvivoGen, San Diego, CA, cat. ant-pm-2), 10% defined fetal bovine serum, heat inactivated (HyClone Laboratories Inc., Logan, UT, cat. SH30070.03HI), 50% L-WRN conditioned media (ATCC, cat. CRL-3276), 1.25 mM N-Acetyl-L-cysteine (Sigma-Aldrich, cat. A9165), 10 mM nicotinamide (Sigma-Aldrich, cat. N0636), 1X B-27 supplement (Thermo Fisher Scientific, cat. 17504044), 1X N-2 supplement (Thermo Fisher Scientific, cat. […]

[1] = second compound 0.0316 µM, first compound 0.0316 µM
[2] = second compound 0.0316 µM, first compound 0.1 µM
[3] = second compound 0.0316 µM, first compound 0.316 µM
[4] = second compound 0.0316 µM, first compound 1 µM
[5] = second compound 0.1 µM, first compound 0.0316 µM
[6] = second compound 0.1 µM, first compound 0.1 µM
[7] = second compound 0.1 µM, first compound 0.316 µM
[8] = second compound 0.1 µM, first compound 1 µM
[9] = second compound 0.316 µM, first compound 0.0316 µM
[10] = second compound 0.316 µM, first compound 0.1 µM
[11] = second compound 0.316 µM, first compound 0.316 µM
[12] = second compound 0.316 µM, first compound 1 µM
[13] = second compound 1 µM, first compound 0.0316 µM
[14] = second compound 1 µM, first compound 0.1 µM
[15] = second compound 1 µM, first compound 0.316 µM
[16] = second compound 1 µM, first compound 1 µM
[17] = second compound 3.16 µM, first compound 0.0316 µM
[18] = second compound 3.16 µM, first compound 0.1 µM
[19] = second compound 3.16 µM, first compound 0.316 µM
[20] = second compound 3.16 µM, first compound 1 µM
[21] = second compound 10 µM, first compound 0.0316 µM
[22] = second compound 10 µM, first compound 0.1 µM
[23] = second compound 10 µM, first compound 0.316 µM
[24] = second compound 10 µM, first compound 1 µM
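Further: spheroids exposed to compounds for seven days.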
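Wherever viability, T/C is given: 100% = DMSO vehicle control viability.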

Compound: Nc1ccn(C2OC(CO)C(O)C2(F)F)c(=O)n1 (centres undefined) + Cc1cccc(N(C)C(=O)C2C(O)CCN2c2nc(C)cc(C(F)(F)F)c2C#N)c1
- pIC50 (second compound 0.0316 µM): 6.75
- pIC50 (second compound 0.1 µM): 6.86
- pIC50 (second compound 0.316 µM): 6.85
- pIC50 (second compound 1 µM): 6.48
- pIC50 (second compound 3.16 µM): 6.67
- pIC50 (second compound 10 µM): 7.00
- viability, T/C [1]: 67.7%
- viability, T/C [2]: 49.5%
- viability, T/C [3]: 48.8%
- viability, T/C [4]: 40.5%
- viability, T/C (second compound 0.0316 µM, first compound 3.16 µM): 40.4%
- viability, T/C (second compound 0.0316 µM, first compound 10 µM): 31.4%
- viability, T/C [5]: 59%
- viability, T/C [6]: 53.9%
- viability, T/C [7]: 44.5%
- viability, T/C [8]: 39.1%
- viability, T/C (second compound 0.1 µM, first compound 3.16 µM): 44%
- viability, T/C (second compound 0.1 µM, first compound 10 µM): 36.3%
- viability, T/C [9]: 55.6%
- viability, T/C [10]: 50.4%
- viability, T/C [11]: 46%
- viability, T/C [12]: 45%
- viability, T/C (second compound 0.316 µM, first compound 3.16 µM): 39.1%
- viability, T/C (second compound 0.316 µM, first compound 10 µM): 34%
- viability, T/C [13]: 58.3%
- viability, T/C [14]: 57.9%
- viability, T/C [15]: 49.2%
- viability, T/C [16]: 43.9%
- viability, T/C (second compound 1 µM, first compound 3.16 µM): 38.7%
- viability, T/C (second compound 1 µM, first compound 10 µM): 32.5%
- viability, T/C [17]: 54.7%
- viability, T/C [18]: 54.7%
- viability, T/C [19]: 47.7%
- viability, T/C [20]: 43.7%
- viability, T/C (second compound 3.16 µM, first compound 3.16 µM): 37.5%
- viability, T/C (second compound 3.16 µM, first compound 10 µM): 31.7%
- viability, T/C [21]: 69.2%
- viability, T/C [22]: 49%
- viability, T/C [23]: 43.9%
- viability, T/C [24]: 43.8%
- viability, T/C (second compound 10 µM, first compound 3.16 µM): 46.6%
- viability, T/C (second compound 10 µM, first compound 10 µM): 34%

Compound: C=CCn1c(=O)c2cnc(Nc3ccc(N4CCN(C)CC4)cc3)nc2n1-c1cccc(C(C)(C)O)n1 + Nc1ccc(C#CCN(C(=O)Cc2ncc(C(F)(F)F)cc2C(F)(F)F)c2ccc(F)cc2)nn1
- pIC50 (second compound 0.0316 µM): < 6.00
- pIC50 (second compound 0.1 µM): < 6.00
- pIC50 (second compound 0.316 µM): < 6.00
- pIC50 (second compound 1 µM): < 6.00
- pIC50 (second compound 3.16 µM): < 6.00
- pIC50 (second compound 10 µM): < 6.00
- viability, T/C (second compound 0.0316 µM, first compound 0.00316 µM): 113%
- viability, T/C (second compound 0.0316 µM, first compound 0.01 µM): 118%
- viability, T/C [1]: 88.4%
- viability, T/C [2]: 87.2%
- viability, T/C [3]: 74.8%
- viability, T/C [4]: 58.2%
- viability, T/C (second compound 0.1 µM, first compound 0.00316 µM): 114%
- viability, T/C (second compound 0.1 µM, first compound 0.01 µM): 119%
- viability, T/C [5]: 108%
- viability, T/C [6]: 85.1%
- viability, T/C [7]: 64.5%
- viability, T/C [8]: 56.2%
- viability, T/C (second compound 0.316 µM, first compound 0.00316 µM): 106%
- viability, T/C (second compound 0.316 µM, first compound 0.01 µM): 79.1%
- viability, T/C [9]: 78%
- viability, T/C [10]: 80.7%
- viability, T/C [11]: 72.5%
- viability, T/C [12]: 62.4%
- viability, T/C (second compound 1 µM, first compound 0.00316 µM): 101%
- viability, T/C (second compound 1 µM, first compound 0.01 µM): 83.8%
- viability, T/C [13]: 99.4%
- viability, T/C [14]: 78.4%
- viability, T/C [15]: 81.1%
- viability, T/C [16]: 58.9%
- viability, T/C (second compound 3.16 µM, first compound 0.00316 µM): 98.9%
- viability, T/C (second compound 3.16 µM, first compound 0.01 µM): 87.4%
- viability, T/C [17]: 98.1%
- viability, T/C [18]: 90.3%
- viability, T/C [19]: 84.5%
- viability, T/C [20]: 59.1%
- viability, T/C (second compound 10 µM, first compound 0.00316 µM): 97.4%
- viability, T/C (second compound 10 µM, first compound 0.01 µM): 96%
- viability, T/C [21]: 107%
- viability, T/C [22]: 102%
- viability, T/C [23]: 66.4%
- viability, T/C [24]: 54.6%
